In ChEMBL document CHEMBL1148870, “Novel inhibitors of VEGF receptors-1 and -2 based on azole-5-carboxamide templates” (Bioorg Med Chem Lett, 2007) one finds Activity and IC50 data, which are given here for 11 compounds.

In test [1] the target is RAC-alpha serine/threonine-protein kinase (Homo sapiens) (UniProt P31749). As to the kind of experiment: Inhibition of PKB/Akt at 10 uM. Set-up: scale not given: the % may be the effect or the level left.
The species entered for test [2] is Homo sapiens. The test is described as follows: Inhibition of InR at 10 uM. Further details: scale not given: the % may be the effect or the level left.
The target of test [3] is Epidermal growth factor receptor (Homo sapiens) (UniProt P00533). The test is described as follows: Inhibition of ErbB1 at 10 uM. Set-up: scale not given: the % may be the effect or the level left.
Test [4] concerns the target Vascular endothelial growth factor receptor 1 (Homo sapiens, UniProt P17948). The test is described as follows: Inhibition of VEGFR1 assessed as inhibition of phosphorylation in presence of 2 uM ATP by HTRF assay. The format is functional. Background: Time-resolved FRET reads energy transfer from a long-lived donor to a nearby acceptor.
Test [5] addresses Receptor tyrosine-protein kinase erbB-2 (Homo sapiens) (UniProt P04626). As to the kind of experiment: Inhibition of ErbB2/Her2 at 10 uM. Set-up: scale not given: the % may be the effect or the level left.
Test [6] deals with Glycogen synthase kinase-3 beta (Homo sapiens) (UniProt P49841). The test is described as follows: Inhibition of GSK3-beta at 10 uM. Set-up: scale not given: the % may be the effect or the level left.
Test [7] deals with T1, Vascular endothelial growth factor receptor 2 (Homo sapiens, UniProt P35968). The test is described as follows: Inhibition of VEGFR2 assessed as inhibition of phosphorylation in presence of 2 uM ATP by HTRF assay. The format is functional.
Test [8] concerns the target Receptor-type tyrosine-protein kinase FLT3 (Homo sapiens) (UniProt P36888). As to the kind of experiment: Inhibition of Flt3 at 10 uM. Set-up: scale not given: the % may be the effect or the level left.
The species entered for test [9] is Homo sapiens. The test is described as follows: Inhibition of Cdk1 at 10 uM. Further details: scale not given: the % may be the effect or the level left.
For test [10], the species on record is Homo sapiens. The test is described as follows: Inhibition of bcr-Abl at 10 uM. Further details: scale not given: the % may be the effect or the level left.
The target of test [11] is Fibroblast growth factor receptor 1 (Homo sapiens) (UniProt P11362). As to the kind of experiment: Inhibition of FGFR1 at 10 uM. Set-up: scale not given: the % may be the effect or the level left.
Chain of Fibroblast growth factor receptor 1 (Homo sapiens) (P11362 22-822 limits assumed): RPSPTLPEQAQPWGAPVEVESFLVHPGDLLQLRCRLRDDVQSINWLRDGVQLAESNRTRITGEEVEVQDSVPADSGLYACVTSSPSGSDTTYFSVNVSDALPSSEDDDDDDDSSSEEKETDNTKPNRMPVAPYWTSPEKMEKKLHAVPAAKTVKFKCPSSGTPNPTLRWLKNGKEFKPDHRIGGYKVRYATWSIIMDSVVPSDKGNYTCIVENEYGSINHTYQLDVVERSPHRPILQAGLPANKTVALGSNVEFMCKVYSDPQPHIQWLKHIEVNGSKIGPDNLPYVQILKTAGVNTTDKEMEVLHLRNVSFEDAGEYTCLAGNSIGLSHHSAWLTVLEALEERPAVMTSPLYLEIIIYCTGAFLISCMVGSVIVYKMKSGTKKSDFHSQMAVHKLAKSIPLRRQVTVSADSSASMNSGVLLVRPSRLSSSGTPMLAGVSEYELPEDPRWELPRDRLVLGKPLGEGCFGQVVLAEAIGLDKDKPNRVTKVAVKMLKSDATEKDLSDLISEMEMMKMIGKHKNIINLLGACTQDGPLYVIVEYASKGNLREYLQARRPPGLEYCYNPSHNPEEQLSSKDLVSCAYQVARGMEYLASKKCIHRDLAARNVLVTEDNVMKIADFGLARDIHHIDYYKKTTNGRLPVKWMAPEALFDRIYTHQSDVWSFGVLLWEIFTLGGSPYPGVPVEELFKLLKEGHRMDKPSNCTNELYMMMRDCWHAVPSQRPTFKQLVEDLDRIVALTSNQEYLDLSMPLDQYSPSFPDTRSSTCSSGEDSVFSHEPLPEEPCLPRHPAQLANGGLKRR
The target in test [12] is Hepatocyte growth factor receptor (Homo sapiens) (UniProt P08581). The test is described as follows: Inhibition of cMet at 10 uM. Set-up: scale not given: the % may be the effect or the level left.
Test [13] deals with RAF proto-oncogene serine/threonine-protein kinase (Homo sapiens) (UniProt P04049). As to the kind of experiment: Inhibition of Raf1 at 10 uM. Set-up: scale not given: the % may be the effect or the level left.
Chain of RAF proto-oncogene serine/threonine-protein kinase (Homo sapiens) (P04049 whole entry): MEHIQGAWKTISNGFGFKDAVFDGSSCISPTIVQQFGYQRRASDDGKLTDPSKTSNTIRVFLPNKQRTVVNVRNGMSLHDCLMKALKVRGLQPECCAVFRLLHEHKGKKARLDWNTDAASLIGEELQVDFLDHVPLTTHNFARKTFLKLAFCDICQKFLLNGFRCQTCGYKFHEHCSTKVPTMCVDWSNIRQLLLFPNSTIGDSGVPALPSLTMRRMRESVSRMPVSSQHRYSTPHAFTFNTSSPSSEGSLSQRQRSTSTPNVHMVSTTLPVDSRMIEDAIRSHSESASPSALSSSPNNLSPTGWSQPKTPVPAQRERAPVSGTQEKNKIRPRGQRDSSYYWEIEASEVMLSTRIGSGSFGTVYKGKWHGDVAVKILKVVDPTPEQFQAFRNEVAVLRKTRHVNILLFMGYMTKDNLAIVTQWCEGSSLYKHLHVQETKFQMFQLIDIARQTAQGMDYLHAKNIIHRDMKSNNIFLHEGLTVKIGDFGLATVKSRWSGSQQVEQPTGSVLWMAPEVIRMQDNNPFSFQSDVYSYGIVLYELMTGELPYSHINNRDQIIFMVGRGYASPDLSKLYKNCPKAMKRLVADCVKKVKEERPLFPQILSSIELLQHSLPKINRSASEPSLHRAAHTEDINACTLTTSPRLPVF
Test [14] is filed under the species Homo sapiens. As to the kind of experiment: Inhibition of PKA at 10 uM. Further details: scale not given: the % may be the effect or the level left.
In test [15] the target is T1, Vascular endothelial growth factor receptor 2. As to the kind of experiment: Inhibition of VEGFR2 assessed as inhibition of phosphorylation in human 293 cells by cell-based ELISA. In kind it is functional, HEK293. Background: ELISA stands for enzyme-linked immunosorbent assay.
The target in test [16] is Cyclin-dependent kinase 2 (Homo sapiens) (UniProt P24941). The test is described as follows: Inhibition of Cdk2 at 10 uM. Set-up: scale not given: the % may be the effect or the level left.
Test [17] concerns the target Insulin-like growth factor 1 receptor (Homo sapiens) (UniProt P08069). The test is described as follows: Inhibition of IGF1R at 10 uM. Set-up: scale not given: the % may be the effect or the level left.
The target of test [18] is Vascular endothelial growth factor receptor 3 (Homo sapiens) (UniProt P35916). The test is described as follows: Inhibition of Flt4 at 10 uM. Further details: scale not given: the % may be the effect or the level left.

Each structure is given as a SMILES string.

Chain of Receptor tyrosine-protein kinase erbB-2 (Homo sapiens) (P04626 whole entry): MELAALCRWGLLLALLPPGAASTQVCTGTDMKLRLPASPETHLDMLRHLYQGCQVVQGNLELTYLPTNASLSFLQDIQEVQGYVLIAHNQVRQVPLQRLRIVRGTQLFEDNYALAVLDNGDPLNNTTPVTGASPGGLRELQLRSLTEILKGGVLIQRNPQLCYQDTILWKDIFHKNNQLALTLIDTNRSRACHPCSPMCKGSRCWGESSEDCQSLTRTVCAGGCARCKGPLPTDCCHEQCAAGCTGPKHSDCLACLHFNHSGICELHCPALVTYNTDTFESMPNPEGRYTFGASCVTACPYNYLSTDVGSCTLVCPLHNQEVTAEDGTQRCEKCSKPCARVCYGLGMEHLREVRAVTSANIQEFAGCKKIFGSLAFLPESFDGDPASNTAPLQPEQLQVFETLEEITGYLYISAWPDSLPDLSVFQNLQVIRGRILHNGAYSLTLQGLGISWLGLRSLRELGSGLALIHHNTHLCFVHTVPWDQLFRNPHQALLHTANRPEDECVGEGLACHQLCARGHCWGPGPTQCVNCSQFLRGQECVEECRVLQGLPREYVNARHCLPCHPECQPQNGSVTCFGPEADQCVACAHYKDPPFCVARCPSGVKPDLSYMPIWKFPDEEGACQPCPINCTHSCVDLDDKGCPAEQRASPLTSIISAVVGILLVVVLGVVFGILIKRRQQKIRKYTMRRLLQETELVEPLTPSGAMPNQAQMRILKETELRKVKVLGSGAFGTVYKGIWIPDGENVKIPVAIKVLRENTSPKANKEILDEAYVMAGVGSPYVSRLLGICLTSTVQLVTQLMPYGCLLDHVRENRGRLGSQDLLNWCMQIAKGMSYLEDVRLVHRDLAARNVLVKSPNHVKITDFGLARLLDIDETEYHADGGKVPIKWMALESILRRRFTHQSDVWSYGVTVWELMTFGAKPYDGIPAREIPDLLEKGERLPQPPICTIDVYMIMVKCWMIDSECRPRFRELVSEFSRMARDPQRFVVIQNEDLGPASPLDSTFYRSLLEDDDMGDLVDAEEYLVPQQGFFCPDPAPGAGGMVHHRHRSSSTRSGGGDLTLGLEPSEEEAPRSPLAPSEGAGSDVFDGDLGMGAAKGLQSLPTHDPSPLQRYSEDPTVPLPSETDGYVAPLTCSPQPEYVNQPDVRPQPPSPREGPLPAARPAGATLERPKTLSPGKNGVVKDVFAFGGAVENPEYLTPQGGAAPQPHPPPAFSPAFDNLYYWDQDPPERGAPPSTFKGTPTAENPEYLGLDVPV
Chain of Insulin-like growth factor 1 receptor (Homo sapiens) (P08069 31-736 limits assumed): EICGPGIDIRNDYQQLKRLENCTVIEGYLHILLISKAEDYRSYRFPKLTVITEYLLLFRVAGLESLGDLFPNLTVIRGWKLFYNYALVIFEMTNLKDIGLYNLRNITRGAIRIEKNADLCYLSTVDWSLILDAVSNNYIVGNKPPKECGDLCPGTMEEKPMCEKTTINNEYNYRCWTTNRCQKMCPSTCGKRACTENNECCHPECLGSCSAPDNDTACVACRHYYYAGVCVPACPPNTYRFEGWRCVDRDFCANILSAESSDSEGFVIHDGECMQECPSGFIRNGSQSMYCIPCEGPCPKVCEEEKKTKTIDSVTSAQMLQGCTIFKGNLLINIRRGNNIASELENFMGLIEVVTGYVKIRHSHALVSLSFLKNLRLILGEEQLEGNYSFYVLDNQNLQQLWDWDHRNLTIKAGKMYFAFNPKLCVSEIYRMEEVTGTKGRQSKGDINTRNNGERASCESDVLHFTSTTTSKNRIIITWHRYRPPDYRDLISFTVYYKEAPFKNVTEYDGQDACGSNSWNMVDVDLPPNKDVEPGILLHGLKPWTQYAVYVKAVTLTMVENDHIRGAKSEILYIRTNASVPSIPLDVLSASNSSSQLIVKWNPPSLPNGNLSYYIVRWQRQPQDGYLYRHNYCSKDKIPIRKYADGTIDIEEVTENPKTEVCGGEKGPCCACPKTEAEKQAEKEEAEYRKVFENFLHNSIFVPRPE
Chain of Insulin-like growth factor 1 receptor (Homo sapiens) (P08069 741-1367 limits assumed): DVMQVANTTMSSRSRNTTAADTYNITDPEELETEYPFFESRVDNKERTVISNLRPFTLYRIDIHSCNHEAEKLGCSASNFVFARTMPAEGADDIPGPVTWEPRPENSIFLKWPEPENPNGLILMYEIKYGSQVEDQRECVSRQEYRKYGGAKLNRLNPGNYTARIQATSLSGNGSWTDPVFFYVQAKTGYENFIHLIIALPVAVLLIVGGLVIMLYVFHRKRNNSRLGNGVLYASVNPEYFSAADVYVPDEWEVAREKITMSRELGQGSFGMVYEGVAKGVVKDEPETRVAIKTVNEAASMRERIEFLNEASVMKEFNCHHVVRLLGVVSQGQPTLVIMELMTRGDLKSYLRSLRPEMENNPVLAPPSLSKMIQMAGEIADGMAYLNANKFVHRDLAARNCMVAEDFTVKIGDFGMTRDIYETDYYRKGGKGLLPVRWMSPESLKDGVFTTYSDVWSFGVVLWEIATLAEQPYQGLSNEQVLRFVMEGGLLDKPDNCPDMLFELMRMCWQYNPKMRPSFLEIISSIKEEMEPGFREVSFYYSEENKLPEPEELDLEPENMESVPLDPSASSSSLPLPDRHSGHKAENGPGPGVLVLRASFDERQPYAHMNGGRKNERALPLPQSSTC
Chain of Receptor-type tyrosine-protein kinase FLT3 (Homo sapiens) (P36888 whole entry): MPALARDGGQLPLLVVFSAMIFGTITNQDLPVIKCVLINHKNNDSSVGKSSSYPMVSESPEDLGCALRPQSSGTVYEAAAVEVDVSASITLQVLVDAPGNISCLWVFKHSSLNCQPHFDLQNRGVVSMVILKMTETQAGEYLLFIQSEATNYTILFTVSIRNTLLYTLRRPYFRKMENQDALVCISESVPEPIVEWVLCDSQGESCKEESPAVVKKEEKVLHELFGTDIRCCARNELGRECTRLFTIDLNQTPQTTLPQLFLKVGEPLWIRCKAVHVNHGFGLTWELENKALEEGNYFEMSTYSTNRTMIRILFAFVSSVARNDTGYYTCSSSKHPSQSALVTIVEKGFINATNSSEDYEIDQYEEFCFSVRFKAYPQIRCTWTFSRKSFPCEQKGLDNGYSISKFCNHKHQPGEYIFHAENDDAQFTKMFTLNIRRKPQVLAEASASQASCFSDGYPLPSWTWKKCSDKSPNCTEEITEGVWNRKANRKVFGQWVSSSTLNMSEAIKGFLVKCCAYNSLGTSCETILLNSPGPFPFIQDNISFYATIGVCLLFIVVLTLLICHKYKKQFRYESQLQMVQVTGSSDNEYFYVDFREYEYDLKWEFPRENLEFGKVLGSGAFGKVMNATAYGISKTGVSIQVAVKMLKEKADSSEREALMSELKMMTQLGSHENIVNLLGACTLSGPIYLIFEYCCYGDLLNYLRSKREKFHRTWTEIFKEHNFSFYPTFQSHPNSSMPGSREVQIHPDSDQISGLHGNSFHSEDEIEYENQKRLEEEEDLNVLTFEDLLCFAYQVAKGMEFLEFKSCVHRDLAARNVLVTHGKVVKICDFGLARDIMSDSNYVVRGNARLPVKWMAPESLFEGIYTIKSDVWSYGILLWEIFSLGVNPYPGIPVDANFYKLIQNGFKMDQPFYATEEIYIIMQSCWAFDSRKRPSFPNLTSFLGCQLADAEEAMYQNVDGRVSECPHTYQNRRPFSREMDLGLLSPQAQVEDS

In the case of `O=C(Nc1ccc(Cl)c(Cl)c1)c1ccnn1CCc1ccncc1`, the Activity is > 30% in test [1]; > 30% in the test filed under Homo sapiens [2]; < 30% in [3]; > 30% in [5]; > 30% in test [6]; > 30% in [8]. Besides, the Activity (in the test listed under Homo sapiens [9]; in the test listed under Homo sapiens [10]; in test [11]; in [12]; in test [13]; in the test filed under Homo sapiens [14]) was > 30% in each case. Also, the Activity in test [16], in test [17] and in test [18] was > 30% throughout. The figures for the IC50 in test [4], in test [7] and in test [15] were 0.86 µM, 0.26 µM and 0.12 µM, respectively.
With `O=C(Nc1ccc(C(F)(F)F)c(Cl)c1)c1nnnn1CCc1ccncc1`, the Activity in [1] was > 30%; in the test filed under Homo sapiens [2], > 30%; in [3], < 30%; in test [5] it was > 30%; in test [6], > 30%; in test [8] it was > 30%. The Activity (in the test listed under Homo sapiens [9]; in the test filed under Homo sapiens [10]; in test [11]; in [12]; in test [13]; in the test listed under Homo sapiens [14]) was > 30% in each case. Also, the Activity in test [16], in [17] and in test [18] was > 30% in each case. Moreover, the IC50 in test [4], in test [7] and in test [15] was > 10 µM in each case.
Take `Cc1cc(C(=O)Nc2ccc(OC(F)(F)F)cc2)n(CCc2ccncc2)n1`: the Activity in [1] was > 30%; in the test listed under Homo sapiens [2], > 30%; in [3], < 30%; in [5] it was > 30%; in [6], > 30%; in test [8], > 30%. Also, the Activity (in the test filed under Homo sapiens [9]; in the test filed under Homo sapiens [10]; in test [11]; in test [12]; in [13]; in the test listed under Homo sapiens [14]) was > 30% in each case. Moreover, the Activity in test [16], in test [17] and in test [18] was > 30% each time. The IC50 turned out to be 2.25 µM in [4], 1.19 µM in test [7] and 1.34 µM in test [15].
As for `CC(C)(C)c1ccc(NC(=O)c2nccn2CCc2ccncc2)cc1`, the Activity in test [1] is > 30%; in the test filed under Homo sapiens [2], > 30%; in test [3], < 30%; in [5], > 30%; in test [6] it was > 30%; in test [8], > 30%. The Activity (in the test filed under Homo sapiens [9]; in the test filed under Homo sapiens [10]; in test [11]; in test [12]; in test [13]; in the test filed under Homo sapiens [14]) was > 30% throughout. Moreover, the Activity in test [16], in test [17] and in test [18] was > 30% throughout. Further, the IC50 in test [4] was 3.86 µM; in [7], 0.94 µM; in test [15], 2.25 µM.
Regarding `O=C(Nc1ccc(Cl)cc1)c1ccnn1CCc1noc2ccccc12`, the Activity in test [1] is > 30%; in the test filed under Homo sapiens [2], > 30%; in test [3], < 30%; in test [5], > 30%; in [6], > 30%; in [8], > 30%. For the same compound, the Activity (in the test listed under Homo sapiens [9]; in the test filed under Homo sapiens [10]; in [11]; in [12]; in test [13]; in the test filed under Homo sapiens [14]) was > 30% in each case. For the same compound, the Activity in test [16], in [17] and in test [18] was > 30% throughout. Besides, the IC50 in test [4], in [7] and in test [15] was > 10 µM throughout.
As for `Cc1nn(CCc2ccncc2)c(C(=O)Nc2ccc(Cl)cc2)c1C`, the Activity in test [1] was > 30%; in the test filed under Homo sapiens [2], > 30%; in test [3], < 30%; in test [5] it was > 30%; in test [6], > 30%; in test [8] it was > 30%. Moreover, the Activity (in the test filed under Homo sapiens [9]; in the test listed under Homo sapiens [10]; in test [11]; in test [12]; in test [13]; in the test listed under Homo sapiens [14]) was > 30% in each case. Besides, the Activity in test [16], in [17] and in [18] was > 30% each time. Further, the IC50 in test [4], in [7] and in test [15] was > 10 µM in each case.
As for `O=C(Nc1ccc(C(F)(F)F)c(Cl)c1)c1nccn1CCc1ccncc1`, the Activity was > 30% in [1]; > 30% in the test listed under Homo sapiens [2]; < 30% in test [3]; > 30% in test [5]; > 30% in [6]; > 30% in [8]. The Activity (in the test listed under Homo sapiens [9]; in the test filed under Homo sapiens [10]; in test [11]; in [12]; in test [13]; in the test listed under Homo sapiens [14]) was > 30% in each case. Further, the Activity in test [16], in test [17] and in test [18] was > 30% in each case. Further, the figures for the IC50 in test [4], in [7] and in test [15] were 4.56 µM, 1.31 µM and 4.95 µM, respectively.
For the compound `O=C(Nc1ccc(OCc2ccccc2)cc1)c1ccnn1CCc1ccncc1`, the Activity in test [1] was > 30%; in the test filed under Homo sapiens [2] it was > 30%; in test [3], < 30%; in test [5], > 30%; in test [6], > 30%; in test [8] it was > 30%. Further, the Activity (in the test filed under Homo sapiens [9]; in the test filed under Homo sapiens [10]; in [11]; in test [12]; in [13]; in the test listed under Homo sapiens [14]) was > 30% each time. Further, the Activity in test [16], in test [17] and in test [18] was > 30% in each case. Further, the IC50 in test [4], in test [7] and in test [15] was > 10 µM in each case.
As to `O=C(Nc1ccc(Oc2ccccc2)cc1)c1ccnn1CCc1ccncc1`, the Activity in test [1] is > 30%; in the test listed under Homo sapiens [2], > 30%; in test [3], < 30%; in test [5], > 30%; in [6] it was > 30%; in test [8], > 30%. Also, the Activity (in the test listed under Homo sapiens [9]; in the test filed under Homo sapiens [10]; in [11]; in [12]; in [13]; in the test filed under Homo sapiens [14]) was > 30% each time. Further, the Activity in test [16], in test [17] and in [18] was > 30% each time. Besides, the results for the IC50 in [4], in test [7] and in [15] were 5.25 µM, 3.22 µM and > 10 µM, respectively.
Regarding `O=C(Nc1ccc2cn[nH]c2c1)c1ccnn1CCc1ccncc1`, the Activity in [1] is > 30%; in the test filed under Homo sapiens [2], > 30%; in [3], < 30%; in [5], > 30%; in test [6], > 30%; in [8], > 30%. In addition, the Activity (in the test listed under Homo sapiens [9]; in the test listed under Homo sapiens [10]; in [11]; in test [12]; in test [13]; in the test filed under Homo sapiens [14]) was > 30% throughout. Further, the Activity in test [16], in [17] and in [18] was > 30% throughout. Further, the IC50 in test [4], in test [7] and in [15] was > 10 µM in each case.
For the compound `O=C(Nc1ccc(Cl)cc1)c1nccn1CCc1ccncc1`, the Activity in test [1] was > 30%; in the test filed under Homo sapiens [2], > 30%; in test [3] it was < 30%; in test [5], > 30%; in test [6], > 30%; in [8], > 30%. The Activity (in the test filed under Homo sapiens [9]; in the test listed under Homo sapiens [10]; in test [11]; in test [12]; in test [13]; in the test filed under Homo sapiens [14]) was > 30% throughout. Moreover, the Activity in [16], in test [17] and in test [18] was > 30% each time. Further, the IC50 is 0.94 µM in test [4], 0.38 µM in [7] and 1.32 µM in test [15].

What is called IC50 is the concentration needed to halve the response being measured.
